Reference: US20130261077A1 (priority 2012, published 2013)

Molecular target: T1, FimH-CRD (Escherichia coli, UniProt P08191)
T1 construct: The first 177 amino acids of the FimH protein; thrombin tag (printed as 'fusion protein with thrombin') (cleaved yes); made in house; host or cells: bacteria (pET21b plasmid)
Assay: Competitive binding assay by fluorescence polarization, assay 1 (compounds prepared by manual serial dilution)
Summary of the method: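 Fluorescence-polarization competition of 5 nM Alexa 647 mannoside probe with 60 nM FimH-CRD (first 177 residues, tag removed) in Tris-Cl pH 7.0, NaCl, EDTA, β-ME, BSA, 2.5% DMSO, 5 h at RT in the dark. Twelve-point 3-fold titrations (0.4 nM–75 μM) in duplicate; Kd interpolated from displacement curves.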

T1 sequence (P08191 22-177): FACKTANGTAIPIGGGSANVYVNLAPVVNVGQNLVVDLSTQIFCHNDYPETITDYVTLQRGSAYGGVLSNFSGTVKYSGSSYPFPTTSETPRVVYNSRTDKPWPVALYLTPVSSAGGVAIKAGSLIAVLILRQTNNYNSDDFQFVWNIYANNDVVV

SMILES	IC50	Kd
OC[C@H]1O[C@H](O[C@@H]2[C@H](O)[C@@H](c3cccc(Oc4ccccc4)c3)O[C@H](CO)[C@H]2O)[C@@H](O)[C@@H](O)[C@@H]1O [Compound 271, (2R,3S,4S,5S,6R)-2-[(2R,3R,4R,5R,6R)-3,5-Dihydroxy-2-(hydroxymethyl)-6-(3-phenoxyphenyl)tetrahydropyran-4-yl]oxy-6-(hydroxymethyl)tetrahydropyran-3,4,5-triol]	27 nM	14.7 ± 7 nM
Cc1nnc(-c2ccc(Oc3cccc([C@H]4O[C@H](CO)[C@@H](O)[C@H](O[C@H]5O[C@H](CO)[C@@H](O)[C@H](O)[C@@H]5O)[C@@H]4O)c3)cc2)o1 [Compound 272, (2R,3S,4S,5S,6R)-2-[(2R,3R,4R,5R,6R)-3,5-Dihydroxy-2-(hydroxymethyl)-6-[3-[4-(5-methyl-1,3,4-oxadiazol-2-yl)phenoxy]phenyl]tetrahydropyran-4-yl]oxy-6-(hydroxymethyl)tetrahydropyran-3,4,5-triol]	46 nM	12.7 ± 7.7 nM
Cc1cc(C)cc(Oc2cccc([C@H]3O[C@H](CO)[C@@H](O)[C@H](O[C@H]4O[C@H](CO)[C@@H](O)[C@H](O)[C@@H]4O)[C@@H]3O)c2)c1 [Compound 274, (2R,3S,4S,5S,6R)-2-[(2R,3R,4R,5R,6R)-2-[3-(3,5-Dimethylphenoxy)phenyl]-3,5-dihydroxy-6-(hydroxymethyl)tetrahydropyran-4-yl]oxy-6-(hydroxymethyl)tetrahydropyran-3,4,5-triol]	34 nM	43.1 ± 53 nM
CNC(=O)c1ccc(-c2cccc([C@H]3O[C@H](CO)[C@@H](O)[C@H](O[C@H]4O[C@H](CO)[C@@H](O)[C@H](O)[C@@H]4O)[C@@H]3O)c2)cc1 [Compound 275, 4-[3-[(2R,3R,4R,5R,6R)-3,5-Dihydroxy-6-(hydroxymethyl)-4-[(2R,3S,4S,5S,6R)-3,4,5-trihydroxy-6-(hydroxymethyl)tetrahydropyran-2-yl]oxy-tetrahydropyran-2-yl]phenyl]-N-methyl-benzamide]	28 nM	26.8 ± 15.4 nM
CS(=O)(=O)c1ccc(-c2cccc([C@H]3O[C@H](CO)[C@@H](O)[C@H](O[C@H]4O[C@H](CO)[C@@H](O)[C@H](O)[C@@H]4O)[C@@H]3O)c2)cc1 [Compound 276, (2R,3S,4S,5S,6R)-2-[(2R,3R,4R,5R,6R)-3,5-dihydroxy-2-(hydroxymethyl)-6-[3-(4-methylsulfonylphenyl)phenyl]tetrahydropyran-4-yl]oxy-6-(hydroxymethyl)tetrahydropyran-3,4,5-triol]	49 nM	11.1 ± 3.4 nM
CNC(=O)c1cc(C(=O)NC)cc(-c2cccc([C@H]3O[C@H](CO)[C@@H](O)[C@H](O[C@H]4O[C@H](CO)[C@@H](O)[C@H](O)[C@@H]4O)[C@@H]3O)c2)c1 [Compound 277, 5-[3-[(2R,3R,4R,5R,6R)-3,5-Dihydroxy-6-(hydroxymethyl)-4-[(2R,3S,4S,5S,6R)-3,4,5-trihydroxy-6-(hydroxymethyl)tetrahydropyran-2-yl]oxy-tetrahydropyran-2-yl]phenyl]-N1,N3-dimethyl-benzene-1,3-dicarboxamide]	47 nM	10.7 ± 3.9 nM
OC[C@H]1O[C@H](O[C@@H]2[C@H](O)[C@@H](c3cccc(C4CCCCC4)c3)O[C@H](CO)[C@H]2O)[C@@H](O)[C@@H](O)[C@@H]1O [Compound 278, (2R,3S,4S,5S,6R)-2-[(2R,3R,4R,5R,6R)-2-(3-Cyclohexylphenyl)-3,5-dihydroxy-6-(hydroxymethyl)tetrahydropyran-4-yl]oxy-6-(hydroxymethyl)tetrahydropyran-3,4,5-triol]	64 nM	12.7 ± 0.9 nM
OC[C@H]1O[C@H](O[C@@H]2[C@H](O)[C@@H](c3cccc(-c4cncnc4)c3)O[C@H](CO)[C@H]2O)[C@@H](O)[C@@H](O)[C@@H]1O [Compound 279, (2R,3S,4S,5S,6R)-2-[(2R,3R,4R,5R,6R)-3,5-Dihydroxy-2-(hydroxymethyl)-6-(3-pyrimidin-5-ylphenyl)tetrahydropyran-4-yl]oxy-6-(hydroxymethyl)tetrahydropyran-3,4,5-triol]	51 nM	9.9 ± 1.1 nM
Cn1cnc2ccc(-c3cccc([C@H]4O[C@H](CO)[C@@H](O)[C@H](O[C@H]5O[C@H](CO)[C@@H](O)[C@H](O)[C@@H]5O)[C@@H]4O)c3)cc21 [Compound 280, (2R,3S,4S,5S,6R)-2-[(2R,3R,4R,5R,6R)-3,5-Dihydroxy-2-(hydroxymethyl)-6-[3-(3-methylbenzimidazol-5-yl)phenyl]tetrahydropyran-4-yl]oxy-6-(hydroxymethyl)tetrahydropyran-3,4,5-triol (Trifluoroacetate Ion (1))]	59 nM	18.1 ± 7.1 nM
C=CC[C@H]1O[C@H](CO)[C@@H](O)[C@H](O[C@H]2O[C@H](CO)[C@@H](O)[C@H](O)[C@@H]2O)[C@@H]1O [Compound 281, (2R,3S,4S,5S,6R)-2-[(2R,3R,4R,5R,6R)-2-Allyl-3,5-dihydroxy-6-(hydroxymethyl)tetrahydropyran-4-yl]oxy-6-(hydro I amymethyl)tetrahydropyran-3,4,5-triol]	216 nM	51.1 ± 7.6 nM
OC[C@H]1O[C@H](O[C@H]2[C@H](O)[C@@H](CO)O[C@H](C/C=C/C3CCCCC3)[C@H]2O)[C@@H](O)[C@@H](O)[C@@H]1O [Compound 282, (2R,3S,4S,5S,6R)-2-[(2R,3R,4R,5R,6R)-2-[(E)-3-Cyclohexylallyl]-3,5-dihydroxy-6-(hydroxymethyl)tetrahydropyran-4-yl]oxy-6-(hydroxymethyl)tetrahydropyran-3,4,5-triol]	212 nM	40.6 ± 0.03 nM
COC(=O)c1ccc(CCC[C@H]2O[C@H](CO)[C@@H](O)[C@H](O[C@H]3O[C@H](CO)[C@@H](O)[C@H](O)[C@@H]3O)[C@@H]2O)cc1 [Compound 283, Methyl 4-[3-[(2R,3R,4R,5R,6R)-3,5-dihydroxy-6-(hydroxymethyl)-4-[(2R,3S,4S,5S,6R)-3,4,5-trihydroxy-6-(hydroxymethyl)tetrahydropyran-2-yl]oxy-tetrahydropyran-2-yl]propyl]benzoate]	27 nM	10.8 ± 4.1 nM
COc1cccc([C@H]2O[C@H](CO)[C@@H](O)[C@H](O[C@H]3O[C@H](CO)[C@@H](O)[C@H](O)[C@@H]3O)[C@@H]2O)c1 [Compound 284, (2R,3S,4S,5S,6R)-2-[(2R,3R,4R,5R,6R)-3,5-Dihydroxy-2-(hydroxymethyl)-6-(3-methoxyphenyl)tetrahydropyran-4-yl]oxy-6-(hydroxymethyl)tetrahydropyran-3,4,5-triol]	49 nM	166 ± 96.5 nM
OC[C@H]1O[C@H](O[C@@H]2[C@H](O)[C@@H](c3cccc(OCC4CCCC4)c3)O[C@H](CO)[C@H]2O)[C@@H](O)[C@@H](O)[C@@H]1O [Compound 285, (2R,3S,4S,5S,6R)-2-[(2R,3R,4R,5R,6R)-2-[3-(Cyclopentylmethoxy)phenyl]-3,5-dihydroxy-6-(hydroxymethyl)tetrahydropyran-4-yl]oxy-6-(hydroxymethyl)-tetrahydropyran-3,4,5-triol]	80 nM	14.7 ± 1.2 nM
OC[C@H]1O[C@H](O[C@@H]2[C@H](O)[C@@H](c3cccc(OCCF)c3)O[C@H](CO)[C@H]2O)[C@@H](O)[C@@H](O)[C@@H]1O [Compound 287, (2R,3S,4S,5S,6R)-2-[(2R,3R,4R,5R,6R)-2-[3-(2-Fluoroethoxy)phenyl]-3,5-dihydroxy-6-(hydroxymethyl)tetrahydropyran-4-yl]oxy-6-(hydroxymethyl)tetrahydropyran-3,4,5-triol]	107 nM	32.2 ± 8.5 nM
CNC(=O)COc1cccc([C@H]2O[C@H](CO)[C@@H](O)[C@H](O[C@H]3O[C@H](CO)[C@@H](O)[C@H](O)[C@@H]3O)[C@@H]2O)c1 [Compound 288, 2-[3-[(2R,3R,4R,5R,6R)-3,5-dihydroxy-6-(hydroxymethyl)-4-[(2R,3S,4S,5S,6R)-3,4,5-trihydroxy-6-(hydroxymethyl)tetrahydropyran-2-yl]oxy-tetrahydropyran-2-yl]phenoxy]-N-methyl-acetamide]	46 nM	28.7 ± 25.6 nM
COc1ccc([C@H]2O[C@H](CO)[C@@H](O)[C@H](O[C@H]3O[C@H](CO)[C@@H](O)[C@H](O)[C@@H]3O)[C@@H]2O)cc1O [Compound 289, (2R,3S,4S,5S,6R)-2-[(2R,3R,4R,5R,6R)-3,5-Dihydroxy-2-(3-hydroxy-4-methoxy-phenyl)-6-(hydroxymethyl)tetrahydropyran-4-yl]oxy-6-(hydroxymethyl)tetrahydropyran-3,4,5-triol]	175 nM	162 ± 241 nM
COc1ccc(C2O[C@H](CO)[C@@H](O)[C@H](O[C@H]3O[C@H](CO)[C@@H](O)[C@H](O)[C@@H]3O)[C@@H]2O)cc1Oc1ccc(NC(=O)C(C)C)cc1 (stereo partly shown) [Compound 290]	29 nM	11.9 ± 4.9 nM
CNC(=O)c1cccc(Oc2ccc([C@H]3O[C@H](CO)[C@@H](O)[C@H](O)[C@@H]3O)cc2)c1 [Compound 292, N-methyl-3-(4-((2R,3S,4R,5S,6R)-3,4,5-trihydroxy-6-(hydroxymethyl)tetrahydro-2H-pyran-2-yl)phenoxy)benzamide]	–	6 ± 0.4 nM
COC(=O)Cc1cccc(Oc2ccc([C@H]3O[C@H](CO)[C@@H](O)[C@H](O)[C@@H]3O)cc2)c1 [Compound 293, methyl 2-(3-(4-((2R,3S,4R,5S,6R)-3,4,5-trihydroxy-6-(hydroxymethyl)tetrahydro-2H-pyran-2-yl)phenoxy)phenyl)acetate]	–	9 ± 2 nM
COC(=O)c1cccc(-c2ccc([C@H]3O[C@H](CO)[C@@H](O)[C@H](O)[C@@H]3O)cc2)c1 [Compound 294, methyl 4′-((2R,3S,4R,5S,6R)-3,4,5-trihydroxy-6-(hydroxymethyl)tetrahydro-2H-pyran-2-yl)-[1,1′-biphenyl]-3-carboxylate]	–	11 ± 3 nM
CNC(=O)c1cccc(-c2ccc([C@H]3O[C@H](CO)[C@@H](O)[C@H](O)[C@@H]3O)cc2)c1 [Compound 295, N-methyl-4′-((2R,3S,4R,5S,6R)-3,4,5-trihydroxy-6-(hydroxymethyl)tetrahydro-2H-pyran-2-yl)-[1,1′-biphenyl]-3-carboxamide]	–	12 ± 3 nM
